Patent US20220336811A1, “CATHODE ACTIVE MATERIAL FOR SECONDARY BATTERY COMPRISING CHARGE TRANSFER COMPLEX AND METHOD FOR MANUFACTURING SAME” (SEOUL NATIONAL UNIVERSITY R&DB FOUNDATION, priority 2019, published 2022)
Values after ≈ are worked out from the molar mass of the structure shown.

Settings: 3 h
Protocol: The synthesized cathode mixtures were rolled with a stainless steel (SUS) rod and cut to a size of 1.5 cm×1.5 cm to produce cathodes for secondary batteries.
The cathodes produced in Embodiment 2 were put in 4 mL of a tetraethyleneglycol dimethylether (TEGDME) solvent, and stored in a 60° C. oven for 3 hours, and then solubilities of the cathode active materials for a solvent in an electrolyte were measured through ultraviolet-visible (UV-Vis) spectroscopy by using the used solvent.

| SMILES | solubility [mM] |
| --- | --- |
| N#CC(C#N)=c1ccc(=C(C#N)C#N)cc1 [compound 2, 7,7,8,8-tetracyanoquinodimethane] | 5.625 (≈ 1150 µg/mL) |
| c1ccc2nc3ccccc3nc2c1 [compound 1, phenazine] | 9.087 (≈ 1640 µg/mL) |
